Data published in PubChem BioAssay (NCI).
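1) Cells in 96-well plates. 2) Compound, 48 h, 5 concentrations. 3) Linear interpolation between surrounding doses. 4) Unreached endpoint = highest concentration. GI50 is the concentration that inhibits growth by half. The concentration for full growth arrest is given as TGI.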

Legend:
Assay in all cases: DTP human tumour cell line panel, 48 h
[1] = tested on: 786-0 renal
[2] = tested on: HOP-92 NSCLC
[3] = tested on: T-47D breast
[4] = tested on: OVCAR-5 ovarian
[5] = tested on: KM12 colon
[6] = tested on: HL-60(TB) leukemia
[7] = tested on: NCI-H460 lung
[8] = tested on: M14 melanoma
[9] = tested on: OVCAR-4 ovarian
[10] = tested on: SK-MEL-5 melanoma
[11] = tested on: HOP-62 NSCLC
[12] = tested on: MDA-MB-435
[13] = tested on: SK-OV-3 ovarian
[14] = tested on: SF-268 CNS
[15] = tested on: MALME-3M melanoma
[16] = tested on: CCRF-CEM leukemia
[17] = tested on: HT29 colon
[18] = tested on: MDA-MB-231 breast
[19] = tested on: NCI-H226 lung
[20] = tested on: HCT-116 colon
[21] = tested on: HS 578T breast
[22] = tested on: BT-549 breast
[23] = tested on: HCT-15 colon
[24] = tested on: A549 NSCLC
[25] = tested on: HCC-2998 colon
[26] = tested on: SW-620 colon
[27] = tested on: ACHN renal
[28] = tested on: UO-31 renal
[29] = tested on: SNB-19 CNS

Question: Which TGI [1] does the source give for `O=C(Nc1ccc(I)cc1F)c1cc(-c2ccc(F)cc2F)ccc1O` here?
Answer: The TGI was 9.11 µM.

Question: What about the GI50 [2] of the same compound?
Answer: The GI50 was 2.42 µM.

Question: What about the TGI [2] of the same compound?
Answer: Its TGI is 5.93 µM.

Question: What about the GI50 [3] of the same compound?
Answer: Its GI50 is 2.12 µM.

Question: And the TGI [3]?
Answer: Its TGI is 6.04 µM.

Question: And the GI50 [4]?
Answer: The GI50 was 6.63 µM.

Question: What about the TGI [4] of the same compound?
Answer: The TGI was > 100 µM.

Question: What about the GI50 [5] of the same compound?
Answer: The GI50 was 2.78 µM.

Question: And the TGI [5]?
Answer: Its TGI is 8.1 µM.

Question: And the GI50 [6]?
Answer: Its GI50 is 1.8 µM.

Question: What about the TGI [6] of the same compound?
Answer: Its TGI is 5.66 µM.

Question: What about the GI50 [7] of the same compound?
Answer: The GI50 was 2.78 µM.

Question: And the TGI [7]?
Answer: The TGI was 8.42 µM.

Question: And the GI50 [8]?
Answer: The GI50 was 2.05 µM.

Question: And the TGI [8]?
Answer: Its TGI is 5.48 µM.

Question: What about the GI50 [9] of the same compound?
Answer: The GI50 was 3.16 µM.

Question: And the TGI [9]?
Answer: The TGI was 27.1 µM.

Question: And the GI50 [10]?
Answer: Its GI50 is 1.72 µM.

Question: What about the TGI [10] of the same compound?
Answer: Its TGI is 3.29 µM.

Question: And the GI50 [11]?
Answer: Its GI50 is 1.97 µM.

Question: And the TGI [11]?
Answer: The TGI was 4.91 µM.

Question: What about the GI50 [12] of the same compound?
Answer: Its GI50 is 2.59 µM.

Question: What about the TGI [12] of the same compound?
Answer: The TGI was 7.58 µM.

Question: And the GI50 [13]?
Answer: Its GI50 is 2.04 µM.

Question: What about the TGI [13] of the same compound?
Answer: The TGI was 5.55 µM.

Question: And the GI50 [14]?
Answer: Its GI50 is 3.1 µM.

Question: And the TGI [14]?
Answer: The TGI was > 100 µM.

Question: And the GI50 [15]?
Answer: Its GI50 is 2.98 µM.

Question: What about the TGI [15] of the same compound?
Answer: Its TGI is 7.93 µM.

Question: And the GI50 [16]?
Answer: The GI50 was 3.31 µM.

Question: And the TGI [16]?
Answer: The TGI was 17 µM.

Question: What about the GI50 [17] of the same compound?
Answer: Its GI50 is 3.77 µM.

Question: What about the TGI [17] of the same compound?
Answer: Its TGI is > 100 µM.

Question: What about the GI50 [18] of the same compound?
Answer: Its GI50 is 1.88 µM.

Question: What about the TGI [18] of the same compound?
Answer: The TGI was 4.31 µM.

Question: What about the GI50 [19] of the same compound?
Answer: The GI50 was 2.21 µM.

Question: What about the TGI [19] of the same compound?
Answer: Its TGI is 6.3 µM.

Question: And the GI50 [20]?
Answer: Its GI50 is 2.8 µM.

Question: And the TGI [20]?
Answer: Its TGI is 8.81 µM.

Question: And the GI50 [21]?
Answer: The GI50 was 2.58 µM.

Question: And the TGI [21]?
Answer: Its TGI is 7.38 µM.

Question: What about the GI50 [22] of the same compound?
Answer: Its GI50 is 2.36 µM.

Question: And the TGI [22]?
Answer: Its TGI is 6.08 µM.

Question: What about the GI50 [23] of the same compound?
Answer: Its GI50 is 3.07 µM.

Question: What about the TGI [23] of the same compound?
Answer: The TGI was 28.8 µM.

Question: What about the GI50 [24] of the same compound?
Answer: The GI50 was 3.09 µM.

Question: What about the TGI [24] of the same compound?
Answer: The TGI was 47.4 µM.

Question: What about the GI50 [25] of the same compound?
Answer: The GI50 was 3.12 µM.

Question: What about the TGI [25] of the same compound?
Answer: Its TGI is 26.5 µM.

Question: What about the GI50 [26] of the same compound?
Answer: The GI50 was 3.31 µM.

Question: What about the TGI [26] of the same compound?
Answer: Its TGI is 13.6 µM.

Question: And the GI50 [27]?
Answer: The GI50 was 3.06 µM.

Question: What about the TGI [27] of the same compound?
Answer: Its TGI is 11.1 µM.

Question: What about the GI50 [28] of the same compound?
Answer: Its GI50 is 2.44 µM.

Question: And the TGI [28]?
Answer: Its TGI is 9.57 µM.

Question: What about the GI50 [29] of the same compound?
Answer: Its GI50 is 3.38 µM.

Question: And the TGI [29]?
Answer: The TGI was > 100 µM.
